Assay results taken from US10660909B2, “Method for treating cancer using chemokine antagonists” (Syntrix Biosystems Inc., priority 2016, dated 2020).

Columns and labels:
[1] = test system: T11 mouse model of breast cancer; experiment: T11 mouse model of breast cancer; assay type: in vivo; details: T11 mice; SX-682 oral via medicated feed ~10 mg/day/mouse; CP 50 mg/kg ip once weekly; 1-2 weeks; N=7; P<0.0001; FIG. 4
Excerpt: The T11 model is a validated mouse model of breast cancer, which derives from the serial orthotopic transplantation of a murine breast tumor derived from a p53-null mouse into a syngeneic p53 competent recipient, and features sporadic, somatic K-Ras mutation (Herschkowitz, 2012, Proc Natl Acad Sci, 109:2778-83, herein incorporated by reference). Tumors from the T11 model display an RNA expression pattern characteristic of the human claudin-low disease, and are extremely aggressive, with the majority of untreated animals surviving less than 21 days from the time of enrollment in the therapy studies. Treatment regimens were started following tumor manifestation. SX-682 was given orally via medicated feed, at an approximate dose of 10 mg/day/mouse. In brief, the medicated feed was prepared by Research Diets (New Brunswick, N.J.) by incorporating 15.2 grams of SX-682 spray dried dispersion (as prepared in Formulation Example 1) into 1042 grams of standard rodent diet with 10% kcals from fat. The medicated feed was formed into pellets. Carboplatin (CP) was administered once weekly via intraperitoneal injection at a dose of 50 mg/kg. […] Mean±SE. *** P<0.0001 (linear regression).

[2] = test system: MDSCs isolated from blood of AOM/DSS-treated BALBc mice; experiment: GROα-mediated MDSC migration (transwell, flow cytometry count); assay type: cell-based, mouse; details: SX-682 0.1, 1 and 10 μM; GROα (CXCL1) 100 ng/ml; 12 hours; FIG. 2
Protocol: Using the of method of Katoh, 2013, Cancer Cell, 24:631-44 (herein incorporated by reference), to induce and isolate MDSCs, male BALBc mice were given a single intraperitoneal injection of azoxymethane (AOM, 10 mg/kg). Seven days later, these mice were given 4 cycles of water and water containing 1.25% dextran sulfate sodium (DSS). One cycle consisted of providing mice with regular drinking water for 7 days, followed by 1.25% aqueous DSS for 7 days, followed by regular drinking water for 7 days. MDSCs were isolated from femurs and blood of AOM/DSS-treated BALBc mice using the Myeloid-Derived Suppressor Cell Isolation Kit (Miltenyi Biotec) after lysis of red blood cells (RBC) according to the manufacturer's instructions. GROα (CXCL1) was placed in the bottom chamber of a 24-well plate at a concentration of 100 ng/ml. MDSCs isolated from blood of AOM/DSS-treated BALBc mice were seeded at a density of 1×10^6/well in the upper chamber (3 m, BD Falcon). After incubation for 12 hours, migrated cells were quantified by flow cytometry using CountBright Absolute Counting Beads (Molecular Probes). […] The test concentrations of SX-682 were 0.1, 1 and 10 μM, and the DMSO concentration was ≤1%.

[3] = test system: Pten^pc−/−p53^pc−/−Smad4^pc−/− mouse prostate tumors; experiment: Pten/p53/Smad4 triple knockout mouse model of castration resistant prostate cancer; assay type: in vivo; details: SX-682 50 mg/kg b.i.d. oral gavage; ICB 200 μg each anti-PD1 and anti-CTLA4 3×/week; 4-6 weeks; FIG. 12
Protocol: The genetically engineered Pten^pc−/−p53^pc−/−Smad4^pc−/− mouse is a prostate-specific PB promoter-driven (PB-Cre4) conditional triple knockout model (i.e., prostate-specific deletion of all three tumor suppressors, Pten, p53 and Smad4 occurs in the ‘prostate cancer’ or ‘pc’). […] SX-682 was used as a spray dried dispersion (Formulation Example 1), and was administered to mice via oral gavage as a suspension in 0.5% aq. methylcellulose. Treatment was continued for 4-6 weeks and prostate weights measured to determine tumor burden. […] Mean±SE.

[4] = test system: B16-F10 mouse melanoma cells; experiment: B16-F10 syngeneic mouse model of melanoma; assay type: in vivo; details: B16-F10 mice; SX-682 50 mg/kg twice daily oral; anti-PD-1 100 μg twice weekly ip; treatment from day 18; N=4-5; FIG. 9
Protocol: The B16-F10 mouse model is a validated model of melanoma, Overwijk, 2001, Curr Protoc Immunol, Chapter 20: Units 20-21 (herein incorporated by reference). It was used to evaluate the effect of SX-682 alone and in combination with anti-PD1 antibody. B16-F10 mouse melanoma cells were cultured, then mice were injected with 0.5×10^6 B16-F10 cells on day 0, and treatment was initiated on day 18. Mice were treated with vehicle (control), SX-682 alone (50 mg/kg twice daily, oral), anti-PD-1 alone (100 μg twice weekly, ip), or SX-682 in combination with anti-PD-1 (N=4-5 per cohort). SX-682 was used as a spray dried dispersion (Formulation Example 1), and was administered to mice via oral gavage as a suspension in 0.5% aq methylcellulose. […] Data and error bars are the mean±SE.

[5] = test system: C3Tag mouse model of breast cancer; experiment: C3Tag mouse model of breast cancer; assay type: in vivo; details: C3Tag mice; for median survival: SX-682 ~10 mg/day/mouse oral, CP 50 mg/kg ip weekly, up to 60 days, vehicle 18 days, FIG. 6
Excerpt: The C31-T-antigen (C3Tag) mouse model is a validated model of human triple-negative basal cell breast cancer as shown by gene expression analysis (Maroulakou, 1994, Proc Natl Acad Sci, 91:11236-40, herein incorporated by reference). The expressed large T-antigen binds and inactivates the RB and p53 tumor suppressor genes, explaining why this model faithfully recapitulates human basal breast cancer, which also harbors RB and p53 inactivation. This model also has frequent K-Ras amplification and infrequent Ras mutations. Treatment regimens were started following tumor manifestation. SX-682 was given orally via medicated feed, at an approximate dose of 10 mg/day/mouse. Carboplatin (CP) was administered once weekly via intraperitoneal injection at a dose of 50 mg/kg.

[6] = test system: Lewis lung carcinoma (LLC); experiment: LLC syngeneic mouse model of lung cancer; assay type: in vivo; details: LLC mice; SX-682 50 mg/kg twice daily oral; anti-PD-1 100 μg twice weekly ip; treatment from day 18; N=5; FIG. 10
Protocol: The Lewis lung carcinoma (LLC) mouse model (Kellar, 2015, Biomed Res Int, 2015:621324, herein incorporated by reference) was used to evaluate the effect of SX-682 alone and in combination with anti-PD-1 antibody. LLC mouse […] cells were cultured, then mice were injected with 0.5×10^6 LLC cells on day 0, and on day 18 treatment was initiated. Mice were treated with vehicle (control), SX-682 alone (50 mg/kg twice daily, oral), anti-PD-1 alone (100 μg twice weekly, ip), or SX-682 in combination with anti-PD-1 (N=5 per cohort). SX-682 was used as a spray dried dispersion (Formulation Example 1), and was administered to mice via oral gavage as a suspension in 0.5% aq. methylcellulose. The results of this experiment can be seen in FIG. 10 and FIG. 11.

[7] = test system: 60 human tumor cell line panel; experiment: NCI 60 human tumor cell line panel, SRB growth inhibition; assay type: cell-based
Protocol: The chemokine CXCL8 and its receptors CXCR1 and CXCR2 have been identified as important mediators of cellular proliferation for a number of tumor cell types. To validate the relationship between CXCR1 and CXCR2 receptor antagonism and inhibition of tumor cell proliferation, SX-682 was evaluated against the 60 human tumor cell line panel at five concentration levels (0.01, 0.1, 1, 10, 100 μM) as performed by the Developmental Therapeutics Program at the National Cancer Institute (Shoemaker, 2006, Nat Rev Cancer, 6:813-23).
The human tumor cell lines of the cancer screening panel were grown in RPMI 1640 medium containing 5% fetal bovine serum and 2 mM L-glutamine. Cells were inoculated into 96 well microtiter plates in 100 μL at plating densities ranging from 5,000 to 40,000 cells/well depending on the doubling time of individual cell lines. After cell inoculation, the microtiter plates were incubated at 37° C., 5% CO2, 95% air and 100% relative humidity for 24 h prior to addition of SX-682.
After 24 h, two plates of each cell line are fixed in situ with TCA, to represent a measurement of the cell population for each cell line at the time of drug addition (Tz). SX-682 was solubilized in dimethyl sulfoxide at 400-fold the desired final maximum test concentration and stored frozen prior to use. At the time of SX-682 addition, an aliquot of frozen concentrate was thawed and diluted to twice the desired final maximum test concentration with complete medium containing 50 μg/ml gentamicin. Additional four, 10-fold or ½ log serial dilutions are made to provide a total of five drug concentrations plus control. Aliquots of 100 μl of these different drug dilutions were added to the appropriate microtiter wells already containing 100 μl of medium, resulting in the required final drug concentrations.
Following drug addition, the plates were incubated for an additional 48 h at 37° C., 5% CO2, 95% air, and 100% relative humidity. For adherent cells, the assay was terminated by the addition of cold TCA. Cells were fixed in situ by the gentle addition of 50 μl of cold 50% (w/v) TCA (final concentration, 10% TCA) and incubated for 60 minutes at 4° C. The supernatant was discarded, and the plates were washed five times with tap water and air dried. Sulforhodamine B (SRB) solution (100 μl) at 0.4% (w/v) in 1% acetic acid was added to each well, and plates were incubated for 10 minutes at room temperature. After staining, unbound dye was removed by washing five times with 1% acetic acid and the plates were air dried. Bound stain was subsequently solubilized with 10 mM TRIS, and the absorbance was read on an automated plate reader at a wavelength of 515 nm. For suspension cells, the methodology is the same except that the assay was terminated by fixing settled cells at the bottom of the wells by gently adding 50 μl of 80% TCA (final concentration, […]). Using the seven absorbance measurements (time zero, (Tz), control growth, (C), and test growth in the presence of drug at the five concentration levels (Ti)), the percentage growth was calculated at each of the drug concentrations levels. Percentage growth inhibition was calculated as: (Ti−Tz)/(C−Tz)×100 for concentrations for which Ti>/=Tz (Ti−Tz)/Tz×100 for concentrations for which Ti<Tz.
Three dose response parameters were calculated for each experimental agent. […] The drug concentration resulting in total growth inhibition (TGI) is calculated from Ti=Tz. The LC50 (concentration of drug resulting in a 50% reduction in the measured protein at the end of the drug treatment as compared to that at the beginning) indicating a net loss of cells following treatment is calculated from (Ti−Tz)/Tz×100=−50. Values are calculated for each of these three parameters if the level of activity is reached; however, if the effect is not reached or is exceeded, the value for that parameter is expressed as greater or less than the maximum or minimum concentration tested.

[8] = test system: TRIA mouse model of melanoma; experiment: TRIA mouse model of melanoma; assay type: in vivo; details: TRIA mice; SX-682 oral via medicated feed ~10 mg/day/mouse; CP 50 mg/kg ip once weekly; FIG. 7 and 8
Protocol: The Tyrosine-Hras/Ink/Arf null (TRIA) is a validated mouse model of melanoma features an immuno-competent autochthonous tumor; Ras events are in >70% of all melanomas, and ˜50% lose the INK4a/ARF locus which, with B-RAF mutations, is the most common lesion of this cancer (Sharpless, 2016, Cancer Cell 29:832-45). Treatment regimens were started following tumor manifestation. SX-682 was given orally via medicated feed, at an approximate dose of 10 mg/day/mouse. Carboplatin (CP) was administered once weekly via intraperitoneal injection at a dose of 50 mg/kg.

## O=C(Nc1ccc(F)cc1)c1cnc(SCc2cc(OC(F)(F)F)ccc2B(O)O)nc1 [SX-682]
[1]
  tumor growth (tumor volume): effective therapy for breast cancer
[2]
  inhibition of GROα-mediated MDSC migration: effectively inhibit GROα-mediated MDSC migration in a dose-dependent manner
[3]
  tumor burden (prostate weight): inhibited prostate cancer
[4]
  tumor growth (tumor area): significantly slowed tumor growth
[5]; SX-682 oral via medicated feed ~10 mg/day/mouse, CP 50 mg/kg ip once weekly, 4-6 weeks, N=10-12, FIG. 5
  tumor growth (tumor volume): significantly reduced tumor growth as compared to untreated controls
[5]
  median survival: 28 days
[6]
  tumor growth (tumor area): significantly slowed tumor growth
[7]; 60 cell lines, 0.01, 0.1, 1, 10, 100 μM, 48 h, FIG. 3A-3I
  proliferation of human tumor cells: directly affect the proliferation of human tumor cells
[7]; 786-0, CAK-1, TK-10, RXF 393, UO-31, ACHN, SN12C, FIG. 3G
  inhibition of tumor cell proliferation, renal cancer cell lines: direct inhibition of tumor cell proliferation
[7]; A549, H226, H460, H23, H522, H322M, HOP-62, HOP-92, FIG. 3B
  inhibition of tumor cell proliferation, non-small cell lung cancer cell lines: direct inhibition of tumor cell proliferation
[7]; CCRF-CEM, MOLT-4, HL-60, RPMI-8226, K-562, SR, 10^−8 to 10^−4 M, FIG. 3A
  inhibition of tumor cell proliferation, leukemia cell lines: direct inhibition of tumor cell proliferation
[7]; COLO 205, HCT-15, HCC-2998, KM12, HCT-116, SW-620, FIG. 3C
  inhibition of tumor cell proliferation, colon cancer cell lines: direct inhibition of tumor cell proliferation
[7]; IBROV1, OVCAR-8, OVCAR-3, NCI/ADR-RES, OVCAR-5, SK-OV-3, FIG. 3F
  inhibition of tumor cell proliferation, ovarian cancer cell lines: direct inhibition of tumor cell proliferation
[7]; LOX IMVI, MDA-MB-435, SK-MEL-5, MALME-3M, SK-MEL-2, UACC-257, M14, SK-MEL-28, UACC-62, FIG. 3E
  inhibition of tumor cell proliferation, melanoma cell lines: direct inhibition of tumor cell proliferation
[7]; MCF7, BT-549, MDA-MB-231, T-47D, HS 578T, MDA-MB-468, FIG. 3I
  inhibition of tumor cell proliferation, breast cancer cell lines: direct inhibition of tumor cell proliferation
[7]; PC-3, DU-145, FIG. 3H
  inhibition of tumor cell proliferation, prostate cancer cell lines: direct inhibition of tumor cell proliferation
[7]; SF-268, SNB-19, SF-295, SNB-75, SF-539, FIG. 3D
  inhibition of tumor cell proliferation, CNS cancer cell lines: direct inhibition of tumor cell proliferation
[8]
  tumor growth (tumor volume): significantly slowed tumor growth comparable to CP alone

## N.N.O=C([O-])C1(C(=O)[O-])CCC1.[Pt+2] [carboplatin, reference compound]
[5]
  median survival: 28 days
